Reference: patent US20130022649A1, “SNALP FORMULATIONS CONTAINING ANTIOXIDANTS” (Protiva Biotherapeutics, Inc., priority 2009, published 2013)

Assay: Lipid content and purity by reverse phase HPLC (Example 3 Study 3)
Type: physicochemical
Conditions: in 20 mM citrate 1:57 SNALP formulation
Description: Samples were removed after 2 weeks of storage at room temperature (RT) or 40° C. (accelerated conditions). Samples were analyzed for particle size, encapsulation efficiency, lipid content and purity, and siRNA content and purity. Particle size measurements were obtained using a Malvern Zetasizer instrument and encapsulation efficiency was determined using a RiboGreen fluorometric assay. Lipid content and purity were analyzed by reverse phase HPLC. siRNA content and purity were analyzed by denaturing anion-exchange HPLC (DENAX).
Reverse phase HPLC analysis was performed to assess the level of lipid degradation. The results are shown Tables 23-25. […] The formulations containing EDTA or EDTA combined with additional antioxidants had no significant change in lipid content at either storage temperature. The same trends in lipid stability were observed regardless of which cationic lipid was present in the formulation.

## CCCCC/C=C\C/C=C\CCCCCCCCC(CCCCCCCC/C=C\C/C=C\CCCCC)OCCCCN(C)C [MC4 Ether, 4-((6Z,9Z,28Z,31Z)-heptatriaconta-6,9,28,31-tetraen-19-yloxy)-N,N-dimethylbutan-1-amine]
  cationic lipid content before the drop: about 58 mol %
2 weeks at 40° C.
  cationic lipid content after storage: about 52 mol %
